# ChEMBL document CHEMBL2007661, “Compounds: GSK PKIS; Assays: UNC Frye lab” (2012)
# Several values for one entry are separate records, joined by “and”; a condition that tells them apart may be missing. Identical values can stand only once.
# Key:
# Details in all cases: at 1 µM
# [1] = biological target: T1, Inhibitor of nuclear factor kappa-B kinase subunit alpha (Homo sapiens) (UniProt O15111)
# T1 sequence (whole entry): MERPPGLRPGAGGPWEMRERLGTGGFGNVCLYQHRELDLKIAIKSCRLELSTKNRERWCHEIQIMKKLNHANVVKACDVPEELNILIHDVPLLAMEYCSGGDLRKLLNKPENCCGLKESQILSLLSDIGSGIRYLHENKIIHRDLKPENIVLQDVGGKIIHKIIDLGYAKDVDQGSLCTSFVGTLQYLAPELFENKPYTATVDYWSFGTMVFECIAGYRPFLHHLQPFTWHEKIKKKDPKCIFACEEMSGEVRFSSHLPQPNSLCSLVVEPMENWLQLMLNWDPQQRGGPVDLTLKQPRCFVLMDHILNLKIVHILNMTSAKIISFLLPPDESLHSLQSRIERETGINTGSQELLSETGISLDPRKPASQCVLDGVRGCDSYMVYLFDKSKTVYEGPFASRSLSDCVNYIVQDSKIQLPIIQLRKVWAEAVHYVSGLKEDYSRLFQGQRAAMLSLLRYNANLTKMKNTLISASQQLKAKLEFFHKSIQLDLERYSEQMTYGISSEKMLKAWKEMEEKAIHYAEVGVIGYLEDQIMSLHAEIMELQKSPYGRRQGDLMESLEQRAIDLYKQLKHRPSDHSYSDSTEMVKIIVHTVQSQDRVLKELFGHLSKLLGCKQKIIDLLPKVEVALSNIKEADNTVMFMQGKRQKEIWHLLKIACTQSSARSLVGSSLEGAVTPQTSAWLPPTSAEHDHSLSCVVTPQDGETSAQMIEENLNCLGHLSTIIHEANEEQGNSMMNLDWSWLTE
# [2] = biological target: T2, Inhibitor of nuclear factor kappa-B kinase subunit beta (Homo sapiens) (UniProt O14920)
# T2 sequence (whole entry): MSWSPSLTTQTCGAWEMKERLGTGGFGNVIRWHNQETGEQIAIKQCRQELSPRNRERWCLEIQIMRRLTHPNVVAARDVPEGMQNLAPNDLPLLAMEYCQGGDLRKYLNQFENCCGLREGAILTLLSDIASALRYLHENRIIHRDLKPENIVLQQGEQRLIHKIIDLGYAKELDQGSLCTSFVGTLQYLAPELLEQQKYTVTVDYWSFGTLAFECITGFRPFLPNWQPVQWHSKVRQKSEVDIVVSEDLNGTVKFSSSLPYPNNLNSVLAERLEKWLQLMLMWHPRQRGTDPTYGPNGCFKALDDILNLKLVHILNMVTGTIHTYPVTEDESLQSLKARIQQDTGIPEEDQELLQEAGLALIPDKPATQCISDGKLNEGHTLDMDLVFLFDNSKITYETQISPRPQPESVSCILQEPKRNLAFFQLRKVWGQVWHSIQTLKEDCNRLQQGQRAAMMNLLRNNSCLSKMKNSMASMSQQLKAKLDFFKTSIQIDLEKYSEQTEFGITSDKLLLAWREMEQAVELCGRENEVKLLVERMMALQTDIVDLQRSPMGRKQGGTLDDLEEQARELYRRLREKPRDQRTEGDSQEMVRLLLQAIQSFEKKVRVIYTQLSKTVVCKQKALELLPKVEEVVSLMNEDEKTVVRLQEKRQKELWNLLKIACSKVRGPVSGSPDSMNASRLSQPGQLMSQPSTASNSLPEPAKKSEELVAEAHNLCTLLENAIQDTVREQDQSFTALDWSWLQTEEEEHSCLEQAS
# [3] = biological target: T3, Inhibitor of nuclear factor kappa-B kinase subunit epsilon (Homo sapiens) (UniProt Q14164)
# T3 sequence (whole entry): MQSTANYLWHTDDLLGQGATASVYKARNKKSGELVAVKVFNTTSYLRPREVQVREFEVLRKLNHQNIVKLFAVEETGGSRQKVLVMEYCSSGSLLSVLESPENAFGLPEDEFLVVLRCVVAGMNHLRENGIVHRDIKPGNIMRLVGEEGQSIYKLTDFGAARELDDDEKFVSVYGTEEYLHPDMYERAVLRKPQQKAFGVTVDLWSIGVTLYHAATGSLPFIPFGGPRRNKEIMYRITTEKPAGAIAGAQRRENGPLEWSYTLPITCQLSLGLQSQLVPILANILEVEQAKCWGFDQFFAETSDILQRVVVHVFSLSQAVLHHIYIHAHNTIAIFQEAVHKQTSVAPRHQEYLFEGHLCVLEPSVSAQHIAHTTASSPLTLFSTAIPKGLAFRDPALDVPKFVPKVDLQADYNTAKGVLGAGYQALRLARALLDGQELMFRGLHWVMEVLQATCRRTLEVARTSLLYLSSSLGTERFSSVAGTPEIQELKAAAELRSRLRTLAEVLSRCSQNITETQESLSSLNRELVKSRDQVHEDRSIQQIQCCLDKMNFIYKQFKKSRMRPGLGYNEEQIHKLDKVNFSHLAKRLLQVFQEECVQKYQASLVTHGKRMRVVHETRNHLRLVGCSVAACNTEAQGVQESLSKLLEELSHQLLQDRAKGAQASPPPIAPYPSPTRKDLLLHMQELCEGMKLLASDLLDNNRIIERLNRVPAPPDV
# [4] = biological target: T4, Serine/threonine-protein kinase TBK1 (Homo sapiens) (UniProt Q9UHD2)
# T4 sequence (whole entry): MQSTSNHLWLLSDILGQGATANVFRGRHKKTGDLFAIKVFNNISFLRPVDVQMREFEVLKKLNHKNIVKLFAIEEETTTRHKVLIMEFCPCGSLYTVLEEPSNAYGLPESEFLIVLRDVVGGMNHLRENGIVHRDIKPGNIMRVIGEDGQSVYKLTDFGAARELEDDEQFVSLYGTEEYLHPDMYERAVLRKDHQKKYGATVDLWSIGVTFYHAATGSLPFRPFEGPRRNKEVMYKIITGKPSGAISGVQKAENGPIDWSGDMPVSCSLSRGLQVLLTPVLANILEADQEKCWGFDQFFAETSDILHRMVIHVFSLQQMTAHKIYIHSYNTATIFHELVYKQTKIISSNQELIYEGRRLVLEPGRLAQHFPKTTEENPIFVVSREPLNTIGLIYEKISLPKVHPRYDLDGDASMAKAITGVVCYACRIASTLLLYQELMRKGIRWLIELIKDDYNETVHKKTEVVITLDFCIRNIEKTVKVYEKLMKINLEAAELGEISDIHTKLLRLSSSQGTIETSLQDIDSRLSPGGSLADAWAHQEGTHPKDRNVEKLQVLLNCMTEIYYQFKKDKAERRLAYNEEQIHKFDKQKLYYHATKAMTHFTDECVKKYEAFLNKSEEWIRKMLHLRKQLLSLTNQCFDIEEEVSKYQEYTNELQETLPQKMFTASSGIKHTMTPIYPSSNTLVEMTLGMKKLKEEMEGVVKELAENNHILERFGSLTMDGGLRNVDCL
Compound,inhibition [1],inhibition [2],inhibition [3],inhibition [4]
O=C(O[C@H]1CN[C@H](C#Cc2cc3ncnc(Nc4ccc(Cc5ccccc5)cc4)c3s2)C1)N1CCOCC1,-7%,2% and 3%,4% and 2%,14% and 20%
N#Cc1c(NC(=O)c2cccc3ccccc23)sc2c1CCCC2,2% and -1%,-2% and 0%,-2% and -3%,-4% and -3%
N#Cc1c(NC(=O)c2ccc(F)cc2)sc2c1CCCC2,0% and 2%,-2%,-4% and -3%,-4% and -6%
COc1ccc(-c2coc3ncnc(N)c23)cc1,0% and 1%,-3% and -1%,-4%,-7% and -5%
Fc1cccc(COc2ccc(Nc3ncnc4sc(-c5cccs5)cc34)cc2Cl)c1,-2% and 0%,-2% and -3%,-2%,-3% and -2%
CCN1CCC(C(=O)Nc2n[nH]c3nnc(-c4cccc(F)c4F)cc23)CC1,4% and 3%,-2% and -4%,-1% and -3%,-3% and -6%
O=S(=O)(CCOCc1ccc(-c2ccc3ncnc(Nc4ccc(OCc5cccc(F)c5)c(Cl)c4)c3c2)o1)c1ccccc1,0%,-2% and -4%,-2% and -1%,-2% and 1%
O=C1NC(=O)C(c2cccc(Cl)c2)=C1Nc1ccc(Cl)c(C(=O)O)c1,-6% and 2%,-8% and -3%,5%,19% and 18%
c1cnn2ncc(-c3ccnc(NCCCN4CCOCC4)n3)c2c1,2% and 1%,-2%,1% and 2%,-2% and -4%
COc1cc2ncn(-c3cc(OCc4ccccc4Cl)c(C(N)=O)s3)c2cc1OC,-1%,2% and 1%,8% and 7%,56% and 50%
COc1cc(/C=N/Nc2ncnc3[nH]ncc23)ccc1O,6%,-10%,20%,31% and 33%
Nc1nccc(-c2c(-c3ccc(F)cc3)ncn2CCCN2CCOCC2)n1,6% and 5%,-5% and -8%,1% and 3%,0% and 1%
COc1cc2c(cc1Nc1nc(Nc3cccc(F)c3C(N)=O)c3cc[nH]c3n1)N(C(=O)CN1CCN(C(C)C)CC1)CC2,4% and 5%,-1% and -3%,-1% and -2%,-2% and -6%
CCc1cccc(CC)c1/C=C/c1cncc(C(=O)NC)c1,2% and 1%,-6% and -4%,-2% and -3%,0% and -2%

# Further lines, results first:
inhibition [1],inhibition [2],inhibition [3],inhibition [4],Compound
0% and 4%,-4% and -2%,10%,15% and 7%,COc1ccccc1-c1cc(/C=C2\C(=O)Nc3ncc(Br)cc32)cc(Br)c1O
3% and 2%,-1% and 4%,-3% and -1%,-3% and -2%,c1ccc(COc2ccc(Nc3ncnc4ccc(-c5ccco5)cc34)cc2)cc1
4% and 5%,6% and 0%,-1% and 0%,-5% and -3%,CC1=C(C(=O)Nc2ccc3[nH]nc(C)c3c2)C(c2ccc(C(F)(F)F)cc2)CC(=O)N1 (centres undefined)
-1% and 2%,-5% and -1%,0% and -2%,0% and -3%,CCCN1CCC(Oc2cc(Nc3nc(Nc4cccc(F)c4C(N)=O)c4cc[nH]c4n3)c(OC)cc2Cl)CC1
-5% and -4%,1% and 2%,7% and 5%,17% and 7%,FC(F)(F)c1cccc(Nc2nccc(-c3cnn4nc(-c5ccccc5)ccc34)n2)c1
0% and -1%,0% and -2%,-3% and -4%,-8% and -6%,COc1ccc2ncn(-c3cc(O[C@H](C)c4ccccc4C(F)(F)F)c(C(N)=O)s3)c2c1
1% and 2%,-3% and -1%,-1% and 0%,2% and 1%,NS(=O)(=O)c1cccc(-c2ccc3c(NC(=O)C4CC4)n[nH]c3c2)c1
